Values after ≈ are worked out from the molar mass of the structure shown.
Key:
[1] = tested on: Methicillin resistant S. aureus ATCC 33591; assay: MIC determination, MRSA; type: cell-based, Staphylococcus aureus; settings: MRSA ATCC 33591, 24 h; for MIC: Staphylococcus aureus
Method: (§1) Susceptibility testing for bacterial cultures is performed according to the National Council for Clinical Laboratory Standards (NCCLS) protocol M100-S12, “Performance Standards for Antimicrobial Susceptibility Testing.” The bacterial strains recommended by NCCLS were obtained from the American Type Culutre Collection (ATCC) (Table) and were maintained on Mueller Hinton (MHA) agar plates plus or minus 3% lysed horse blood (see Table). The bacteria were grown in Cation adjusted Mueller Hinton Broth (CaMHB) for liquid growth and susceptibility testing. S. cerevisiae (yeast) is grown in yeast peptone dextrose (YPD) media.
(§2) All bacterial cultures were grown at 37 degrees Celsius. Fresh colonies of S. aureus and MRSA were inoculated into liquid media and grown overnight and diluted the next day to grow to mid-log (Table 2). E. faecalis and S. pneumonia mid-log cultures were started directly from colony on plates. To attain mid-log growth, cultures were grown to an optical density (OD) at A590 of 0.2-0.8 (see Table 2) and then diluted to proper OD to obtain 5×10^5 cells/mL.
(§3) Diluted bacterial cultures are added to compound plates with compound diluted 2-fold from 100 μg/mL to 0.2 μg/mL final concentration in DMSO. Control antibiotics are also added: vancomycin, linezolid, and penicillin. In 384 well plates, 0.5 μL compound is added followed by addition of 50 μL of culture. DMSO alone is included as a control. Plates incubated at 37 degrees Celsius for 17-24 h.
(§4) Plates with cells mixed with compounds are incubated for 17 h for S. aureus and yeast, 24 h for MRSA, and all Enterococcus and Streptococcus strains. Yeast plates are incubated […].
(§5) Viability is determined by reading plates at A590 to determine optical density of treated and untreated cells and determining growth inhibition relative to controls.

[2] = tested on: Staphylococcus aureus (Smith) ATCC 19636; assay: MIC determination, S. aureus; type: cell-based; settings: S. aureus ATCC 19636, 17 h; for MIC: Staphylococcus aureus, ATCC19636
Method: as §1, §2, §3, §4, §5

[3] = tested on: Van-intermediate E. faecalis ATCC 51299 / Van-resistant E. faecalis ATCC 700221; assay: MIC determination, VIRE/VRE; type: cell-based, Enterococcus faecalis; settings: ATCC 51299 / 700221, 24 h
Method: The MICs were determined using a broth micro-dilution assay in accordance with that recommended by the National Committee for Clinical Laboratory Standards (NCCLS). The final bacterial inoculate contained approximately 5×10^5 cfu/mL and the plates were incubated at 35° C. for 18 h in ambient air (Streptococci in 5% CO2). The MIC was defined as the lowest drug concentration that prevented visible growth.
as §1, §2, §3, §4, §5

S. cerevisiae Δpdr5 = assay: MIC determination, yeast; type: cell-based; settings: YPD, 30 degrees Celsius
Method: as §1, §3
Yeast cultures are started from a fresh colony into YPD media and then diluted to OD of 0.002. Diluted yeast is added to compound plates as bacteria but incubated at 30 degrees Celsius for 17 h. Controls are amphotericin B and voriconazole.
as §4, §5

[4] = tested on: Enterococcus faecalis ATCC 29212; assay: MIC determination, E. faecalis; type: cell-based; settings: ATCC 29212, 24 h
Method: as §1, §2, §3, §4, §5

[5] = tested on: Penicillin-res. S. pneumonia ATCC 700671; assay: MIC determination, PRSP; type: cell-based, Streptococcus pneumonia; settings: ATCC 700671, 24 h; for MIC: Streptococcus pneumoniae
Method: as §1, §2, §3, §4, §5

[6] = tested on: Streptococcus pneumonia ATCC 49619; assay: MIC determination, S. pneumonia; type: cell-based; settings: for MIC S. pneuomiae: ATCC 49619, 24 h; for MIC: Streptococcus pneumoniae, ATCC49619, 24 h, read-out: MIC S. pneuomiae
Method: as §1, §2, §3, §4, §5

Row | SMILES | MIC MRSA [1] | MIC S. aureus [2] | MIC PRSP [5] | MIC S. pneuomiae [6] | MIC [1] | MIC [2] | MIC [5] | also measured
1 | CC(O)C1ON(Cc2cccc(C#Cc3ccc(Cl)cc3)c2)C(C(=O)NCCc2c[nH]c3ccccc23)C1CO (centres unmarked) | *** (the MIC is less than 5 μg/mL) | *** (the MIC is less than 5 μg/mL) | ** (the MIC is 5-90 μg/mL) | ** (the MIC is 5-90 μg/mL) | – | – | – | MIC VIRE/VRE [3]: ** (the MIC is 5-90 μg/mL); MIC S. cerevisiae Δpdr5 (S. cerevisiae Δpdr5): ** (the MIC is 5-90 μg/mL); MIC E. faecalis [4]: ** (the MIC is 5-90 μg/mL)
2 | Cc1ccc(C#Cc2cccc(CN3OC(C(C)O)C(CO)C3C(=O)NCCc3c[nH]c4ccccc34)c2)cc1 (centres unmarked) | *** (the MIC is less than 5 μg/mL) | *** (the MIC is less than 5 μg/mL) | ** (the MIC is 5-90 μg/mL) | ** (the MIC is 5-90 μg/mL) | – | – | – | MIC VIRE/VRE [3]: ** (the MIC is 5-90 μg/mL); MIC S. cerevisiae Δpdr5 (S. cerevisiae Δpdr5): ** (the MIC is 5-90 μg/mL); MIC E. faecalis [4]: ** (the MIC is 5-90 μg/mL)
3 | Cc1ccc(C#Cc2ccc(CN3O[C@@H]([C@@H](C)O)[C@@H](CN(C)C)[C@H]3C(=O)NCCc3c[nH]c4ccccc34)cc2)cc1 | – | – | – | – | < 5 µg/mL | < 5 µg/mL | 5 to 90 µg/mL (≈ 8.85 to 159 µM) | –
4 | Cc1ccc(CCc2ccc(CN3OC(C(C)O)C(CO)C3C(=O)NCCc3c[nH]c4ccccc34)cc2)cc1 (centres unmarked) | *** (the MIC is less than 5 μg/mL) | *** (the MIC is less than 5 μg/mL) | ** (the MIC is 5-90 μg/mL) | ** (the MIC is 5-90 μg/mL) | – | – | – | –
5 | Cc1ccc(C#Cc2ccc(CN3OC[C@H](CN(C)C)[C@H]3C(=O)NCCc3c[nH]c4ccccc34)cc2)cc1 | – | – | – | – | 5 to 90 µg/mL (≈ 9.6 to 173 µM) | 5 to 90 µg/mL (≈ 9.6 to 173 µM) | 5 to 90 µg/mL (≈ 9.6 to 173 µM) | –
6 | Cc1ccc(C#Cc2ccc(CN3O[C@@H]([C@@H](C)O)[C@@H](CN(C)C)[C@@H]3C(=O)NCCc3c[nH]c4ccccc34)cc2)cc1.Cl | – | – | – | – | 5 to 90 µg/mL | 5 to 90 µg/mL | 5 to 90 µg/mL | –
7 | Cc1ccc(C#Cc2ccc(CN3OC(CO)CC3C(=O)NCCc3c[nH]c4ccccc34)cc2)cc1 (centres unmarked) | – | – | – | – | 5 to 90 µg/mL (≈ 10.1 to 182 µM) | 5 to 90 µg/mL (≈ 10.1 to 182 µM) | 5 to 90 µg/mL (≈ 10.1 to 182 µM) | –
8 | CC(O)C1ON(Cc2ccc(CCc3ccc(Cl)cc3)cc2)C(C(=O)NCCc2c[nH]c3ccccc23)C1CO (centres unmarked) | ** (the MIC is 5-90 μg/mL) | ** (the MIC is 5-90 μg/mL) | ** (the MIC is 5-90 μg/mL) | ** (the MIC is 5-90 μg/mL) | – | – | – | –
9 | Cc1ccc(C#Cc2ccc(CN3OC4CNCC4C3C(=O)NCCc3c[nH]c4ccccc34)cc2)cc1 (centres unmarked) | – | – | – | – | 5 to 90 µg/mL (≈ 9.91 to 178 µM) | 5 to 90 µg/mL (≈ 9.91 to 178 µM) | 5 to 90 µg/mL (≈ 9.91 to 178 µM) | MIC [6]: 5 to 90 µg/mL (≈ 9.91 to 178 µM)
10 | Cc1ccc(C#Cc2ccc(CC3O[C@H]([C@@H](C)O)[C@H](CO)[C@@H]3C(=O)NCCc3nc4ccccc4[nH]3)cc2)cc1 (some centres unmarked) | – | – | – | – | 5 to 90 µg/mL (≈ 9.3 to 167 µM) | 5 to 90 µg/mL (≈ 9.3 to 167 µM) | 5 to 90 µg/mL (≈ 9.3 to 167 µM) | –
11 | Cc1ccc(C=Cc2ccc(CN3OC(C(C)O)C(CO)C3C(=O)NCCc3c[nH]c4ccccc34)cc2)cc1 (centres unmarked) | ** (the MIC is 5-90 μg/mL) | ** (the MIC is 5-90 μg/mL) | ** (the MIC is 5-90 μg/mL) | ** (the MIC is 5-90 μg/mL) | – | – | – | –
12 | CC(O)C1ON(Cc2ccc(-c3ccc(OC4CCCCO4)cc3)cc2)C(C(=O)NCCc2c[nH]c3ccccc23)C1CO (centres unmarked) | ** (the MIC is 5-90 μg/mL) | ** (the MIC is 5-90 μg/mL) | – | ** (the MIC is 5-90 μg/mL) | – | – | – | –
13 | Cc1ccc(C#Cc2ccc(CN3O[C@H]([C@@H](C)O)[C@H](CO)[C@@H]3CNCCc3c[nH]c4ccccc34)cc2)cc1.Cl | – | – | – | – | 5 to 90 µg/mL | 5 to 90 µg/mL | > 90 µg/mL | MIC [6]: > 90 µg/mL
14 | CC(=O)c1ccc(-c2ccc(CN3OC(C(C)O)C(CO)C3C(=O)NCCc3c[nH]c4ccccc34)cc2)cc1 (centres unmarked) | ** (the MIC is 5-90 μg/mL) | ** (the MIC is 5-90 μg/mL) | * (the MIC is >90 μg/mL) | – | – | – | – | MIC E. faecalis [4]: ** (the MIC is 5-90 μg/mL)
15 | Cc1ccc(C#Cc2ccc(CN3O[C@H]([C@@H](C)O)[C@H](CO)[C@@H]3C(=O)NCCCNC(=O)OC(C)(C)C)cc2)cc1 | – | – | – | – | 5 to 90 µg/mL (≈ 9.06 to 163 µM) | 5 to 90 µg/mL (≈ 9.06 to 163 µM) | 5 to 90 µg/mL (≈ 9.06 to 163 µM) | MIC ([4]; Enterococcus faecalis, ATCC29212): 5 to 90 µg/mL (≈ 9.06 to 163 µM)
16 | CCOCCCNC(=O)[C@H]1[C@@H](CO)[C@@H]([C@@H](C)O)ON1Cc1ccc(C#Cc2ccc(C)cc2)cc1 | – | – | – | – | – | 5 to 90 µg/mL (≈ 10.4 to 187 µM) | 5 to 90 µg/mL (≈ 10.4 to 187 µM) | MIC [6]: 5 to 90 µg/mL (≈ 10.4 to 187 µM)
17 | Cc1ccc(C#Cc2ccc(CN3OC(C(C)O)C(CO)C3C(=O)NCCc3cnc[nH]3)cc2)cc1 (centres unmarked) | ** (the MIC is 5-90 μg/mL) | * (the MIC is >90 μg/mL) | – | * (the MIC is >90 μg/mL) | – | – | – | –
18 | CC(O)C1ON(Cc2ccc(C=Cc3ccc(C(F)(F)F)cc3)cc2)C(C(=O)NCCc2c[nH]c3ccccc23)C1CO (centres unmarked) | ** (the MIC is 5-90 μg/mL) | ** (the MIC is 5-90 μg/mL) | ** (the MIC is 5-90 μg/mL) | ** (the MIC is 5-90 μg/mL) | – | – | – | –
19 | CC(O)C1ON(CC2CCCCC2)C(C(=O)NCCc2c[nH]c3ccccc23)C1CO (centres unmarked) | * (the MIC is >90 μg/mL) | ** (the MIC is 5-90 μg/mL) | * (the MIC is >90 μg/mL) | – | – | – | – | MIC E. faecalis [4]: ** (the MIC is 5-90 μg/mL)
20 | Cc1ccc(C#Cc2ccc(CN3O[C@H]([C@@H](C)O)[C@H](CO)[C@@H]3C(=O)NCCN3CCCC3)cc2)cc1 | – | – | – | – | > 90 µg/mL | > 90 µg/mL | > 90 µg/mL | –
21 | Cc1ccc(C#Cc2ccc(CN3OC(C(C)O)C(CO)C3C(=O)NCCc3c[nH]c4ccccc34)cc2)cc1 (centres unmarked) [drawing 206] | *** (the MIC is less than 5 μg/mL) | *** (the MIC is less than 5 μg/mL) | ** (the MIC is 5-90 μg/mL) | – | – | – | – | –
22 | CC(O)C1ON(Cc2ccc(C=Cc3ccccc3)cc2)C(C(=O)NCCc2c[nH]c3ccccc23)C1CO (centres unmarked) [drawing 216] | *** (the MIC is less than 5 μg/mL) | *** (the MIC is less than 5 μg/mL) | ** (the MIC is 5-90 μg/mL) | – | – | – | – | –
23 | CC(O)C1ON(Cc2ccc(C=Cc3ccccc3)cc2)C(C(=O)NCCc2c[nH]c3ccccc23)C1CO (centres unmarked) [drawing 219] | ** (the MIC is 5-90 μg/mL) | *** (the MIC is less than 5 μg/mL) | ** (the MIC is 5-90 μg/mL) | ** (the MIC is 5-90 μg/mL) | – | – | – | MIC VIRE/VRE [3]: * (the MIC is >90 μg/mL); MIC E. faecalis [4]: * (the MIC is >90 μg/mL)
24 | Cc1ccc(C#Cc2ccc(CN3OCC(CO)C3C(=O)NCCc3c[nH]c4ccccc34)cc2)cc1 (centres unmarked) [drawing 221] | ** (the MIC is 5-90 μg/mL) | ** (the MIC is 5-90 μg/mL) | ** (the MIC is 5-90 μg/mL) | – | – | – | – | –

Source: patent US20060020004A1, “Isoxazolidine compounds for treatment of bacterial infections” (Infinity Pharmaceuticals, Inc., priority 2004, published 2006)
